PubChem BioAssay (NCI)
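Interpolation was linear, between the two tested concentrations surrounding the appropriate level; five concentrations were tested over 48 hours in 96-well plates. The concentration for full growth arrest is given as TGI.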

Assays:
Assay in all cases: NCI tumour cell line growth inhibition, 48 h
[1] = system: M14 melanoma
[2] = system: RPMI-8226 leukemia
[3] = system: RXF 393 renal
[4] = system: CCRF-CEM leukemia
[5] = system: MDA-MB-231 breast
[6] = system: MCF7 breast
[7] = system: HOP-92 NSCLC
[8] = system: A498 renal
[9] = system: HT29 colon
[10] = system: BT-549 breast
[11] = system: HOP-62 NSCLC
[12] = system: NCI-H23 lung
[13] = system: ACHN renal
[14] = system: HCT-116 colon
[15] = system: UACC-62 melanoma
[16] = system: OVCAR-8 ovarian
[17] = system: NCI-H226 lung
[18] = system: HS 578T breast
[19] = system: MDA-MB-435
[20] = system: SK-MEL-2 melanoma
[21] = system: HCC-2998 colon
[22] = system: SNB-75 CNS
[23] = system: K-562 leukemia
[24] = system: OVCAR-4 ovarian
[25] = system: U251 CNS
[26] = system: SNB-19 CNS
[27] = system: SK-OV-3 ovarian
[28] = system: IGROV1 ovarian
[29] = system: SK-MEL-5 melanoma
[30] = system: 786-0 renal
[31] = system: TK-10 renal
[32] = system: CAKI-1 renal
[33] = system: T-47D breast
[34] = system: HCT-15 colon
[35] = system: SF-295 CNS
[36] = system: DU-145 prostate
[37] = system: SK-MEL-28 melanoma
[38] = system: SF-268 CNS
[39] = system: PC-3 prostate
[40] = system: SF-539 CNS
[41] = system: HL-60(TB) leukemia
[42] = system: SR leukemia
[43] = system: EKVX NSCLC
[44] = system: SW-620 colon
[45] = system: NCI-H460 lung
[46] = system: NCI/ADR-RES ovarian
[47] = system: COLO 205 colon
[48] = system: UO-31 renal
[49] = system: KM12 colon
[50] = system: UACC-257 melanoma
[51] = system: LOX IMVI melanoma
[52] = system: NCI-H522 lung
[53] = system: SN12C renal
[54] = system: MALME-3M melanoma
[55] = system: MOLT-4 leukemia
[56] = system: OVCAR-3 ovarian
[57] = system: A549 NSCLC
[58] = system: OVCAR-5 ovarian
[59] = system: MDA-N

SMILES: O=C1NC(c2ccc3ccccc3c2)Nc2ccccc21 (stereo not drawn)
- TGI [1]: > 100 µM
- TGI [2]: 69.8 µM
- TGI [3]: > 100 µM
- TGI [4]: > 100 µM
- TGI [5]: > 100 µM
- TGI [6]: > 100 µM
- TGI [7]: > 100 µM
- TGI [8]: > 100 µM
- TGI [9]: > 100 µM
- TGI [10]: 37.1 µM
- TGI [11]: > 100 µM
- TGI [12]: > 100 µM
- TGI [13]: > 100 µM
- TGI [14]: > 100 µM
- TGI [15]: > 100 µM
- TGI [16]: > 100 µM
- TGI [17]: > 100 µM
- TGI [18]: > 100 µM
- TGI [19]: 50.7 µM
- TGI [20]: > 100 µM
- TGI [21]: > 100 µM
- TGI [22]: > 100 µM
- TGI [23]: 7.04 µM
- TGI [24]: > 100 µM
- TGI [25]: > 100 µM
- TGI [26]: > 100 µM
- TGI [27]: > 100 µM
- TGI [28]: > 100 µM
- TGI [29]: > 100 µM
- TGI [30]: > 100 µM
- TGI [31]: > 100 µM
- TGI [32]: > 100 µM
- TGI [33]: > 100 µM
- TGI [34]: > 100 µM
- TGI [35]: > 100 µM
- TGI [36]: > 100 µM
- TGI [37]: > 100 µM
- TGI [38]: > 100 µM
- TGI [39]: > 100 µM
- TGI [40]: > 100 µM
- TGI [41]: > 100 µM
- TGI [42]: > 100 µM
- TGI [43]: > 100 µM
- TGI [44]: > 100 µM
- TGI [45]: > 100 µM
- TGI [46]: > 100 µM
- TGI [47]: > 100 µM
- TGI [48]: > 100 µM
- TGI [49]: > 100 µM
- TGI [50]: > 100 µM
- TGI [51]: > 100 µM

SMILES: CCCCCCC(=O)OC[n+]1ccc(-c2c(COC(=O)NC(C)C)c(COC(=O)NC(C)C)c3n2CCC3)cc1
- TGI [1]: > 100 µM
- TGI [2]: 98.9 µM
- TGI [3]: > 100 µM
- TGI [52]: > 100 µM
- TGI [4]: > 88 µM
- TGI [5]: > 100 µM
- TGI [6]: > 100 µM
- TGI [7]: > 100 µM
- TGI [53]: > 100 µM
- TGI [8]: > 94.2 µM
- TGI [9]: > 100 µM
- TGI [10]: > 100 µM
- TGI [11]: > 100 µM
- TGI [54]: > 100 µM
- TGI [12]: > 100 µM
- TGI [13]: > 100 µM
- TGI [14]: > 100 µM
- TGI [15]: > 100 µM
- TGI [16]: > 100 µM
- TGI [55]: > 94.3 µM
- TGI [17]: > 100 µM
- TGI [56]: > 100 µM
- TGI [18]: > 100 µM
- TGI [19]: > 100 µM
- TGI [20]: > 100 µM
- TGI [21]: > 100 µM
- TGI [22]: > 100 µM
- TGI [23]: > 100 µM
- TGI [24]: > 100 µM
- TGI [25]: > 100 µM
- TGI [57]: > 100 µM
- TGI [26]: > 100 µM
- TGI [27]: > 100 µM
- TGI [28]: > 100 µM
- TGI [29]: > 100 µM
- TGI [30]: > 100 µM
- TGI [31]: > 100 µM
- TGI [32]: 99.4 µM
- TGI [33]: > 100 µM
- TGI [34]: > 100 µM
- TGI [35]: > 100 µM
- TGI [36]: > 100 µM
- TGI [37]: > 100 µM
- TGI [38]: > 100 µM
- TGI [39]: > 100 µM
- TGI [40]: > 100 µM
- TGI [41]: > 71.4 µM
- TGI [58]: > 100 µM
- TGI [42]: 50.9 µM
- TGI [43]: > 100 µM
- TGI [44]: > 100 µM
- TGI [45]: > 100 µM
- TGI [46]: > 100 µM
- TGI [47]: > 100 µM
- TGI [48]: > 100 µM
- TGI [49]: > 100 µM
- TGI [50]: > 100 µM
- TGI [51]: > 100 µM

SMILES: CN1N=C(c2ccncc2)OC1c1cccc(F)c1 (stereo not drawn)
- TGI [1]: > 100 µM
- TGI [2]: > 100 µM
- TGI [3]: > 100 µM
- TGI [52]: > 100 µM
- TGI [4]: > 100 µM
- TGI [5]: > 100 µM
- TGI [6]: > 100 µM
- TGI [53]: > 100 µM
- TGI [8]: > 100 µM
- TGI [9]: > 100 µM
- TGI [11]: > 100 µM
- TGI [12]: > 100 µM
- TGI [13]: > 100 µM
- TGI [14]: > 100 µM
- TGI [15]: > 100 µM
- TGI [16]: > 100 µM
- TGI [55]: > 100 µM
- TGI [17]: > 100 µM
- TGI [56]: > 100 µM
- TGI [18]: > 100 µM
- TGI [19]: > 100 µM
- TGI [20]: > 100 µM
- TGI [21]: > 100 µM
- TGI [22]: > 100 µM
- TGI [59]: > 100 µM
- TGI [23]: > 100 µM
- TGI [24]: > 100 µM
- TGI [25]: > 100 µM
- TGI [57]: > 100 µM
- TGI [26]: > 100 µM
- TGI [27]: > 100 µM
- TGI [28]: > 100 µM
- TGI [29]: > 100 µM
- TGI [30]: > 100 µM
- TGI [31]: > 100 µM
- TGI [33]: > 100 µM
- TGI [34]: > 100 µM
- TGI [35]: > 100 µM
- TGI [36]: > 100 µM
- TGI [37]: > 100 µM
- TGI [38]: > 100 µM
- TGI [39]: > 100 µM
- TGI [40]: > 100 µM
- TGI [41]: > 100 µM
- TGI [58]: > 100 µM
- TGI [43]: > 100 µM
- TGI [44]: > 100 µM
- TGI [45]: > 100 µM
- TGI [46]: > 100 µM
- TGI [47]: > 100 µM
- TGI [48]: > 100 µM
- TGI [49]: > 100 µM
- TGI [50]: > 100 µM
- TGI [51]: > 100 µM
